In patent US8399487B2, “Pyrazole compounds and uses thereof” (Dart NeuroScience (Cayman) Ltd., priority 2006, dated 2013):
“Also recorded” adds a separate entry of the source.

Tested on: contextual memory in C57BL/6 male mice
Assay: Contextual Memory Assay: Fear Conditioning
Assay type: in vivo
Conditions: I.P. 0.01 mg/kg, injected 20 minutes before training, 2 training trials, tested 24 hours after training (FIG. 1)
Excerpt: The ability of a compound to modulate cognitive behavior can be evaluated using the following assay to measure memory after contextual fear conditioning.
Contextual Memory Assay: Fear Conditioning
Contextual memory is a form of Pavlovian fear conditioning in which a naïve mouse is placed into a novel chamber (context) containing distinct visual, olfactory and tactile cues. After a couple of minutes of acclimation, the mouse receives a brief, mild electric shock to its feet. From this negative experience, the mouse will remember for months that that chamber is dangerous. When placed back into the same context at some later time after training, the mouse's natural response to danger is to “freeze,” sitting stone still for many seconds. This is similar to what happens to humans when they experience fear. The percent of time during an observation period that the mouse spends frozen represents a quantitative measure (memory score) of its memory of the context. […]
To assess contextual memory, a modified contextual fear conditioning task originally developed for evaluation of memory in CREB knock-out mice was used (Bourtchouladze, R., et. al., Cell, 1994, 79, 59-68). […] 24 hours after training, the mouse was placed into the same training chamber and contextual memory was assessed by scoring freezing behavior (‘freezing’ serves as memory score). […]

Row | SMILES | contextual memory (freezing to context 24 hr after training)
1 | CN(C)C(=O)c1ccc(-c2cc(C(F)(F)F)n(C)n2)s1 [Compound 162, 5-(1-Methyl-5-trifluoromethyl-1H-pyrazol-3-yl)-thiophene-2-carboxylic acid dimethylamide] | significantly enhanced contextual memory; also recorded: significantly facilitated freezing to context
2 | Cn1nc(-c2ccc(C(=O)N3CCCCC3)s2)cc1C(F)(F)F [Compound 177, [5-(1-Methyl-5-trifluoromethyl-1H-pyrazol-3-yl)-thiophen-2-yl]-piperidin-1-yl-methanone] | significantly enhanced contextual memory; also recorded: significantly facilitated freezing to context
